Results as given in patent US10004701B2, “Methods and compositions for treating infection” (UNIVERSITY OF ROCHESTER, priority 2012, dated 2018).
≈ marks a conversion by molar mass, not a printed value. Where two headings read alike, the source gives them in different places.

Experiments:
[1] = test system: Enterococcus faecium 824-05; assay: MIC testing; type: cell-based
E. faecium = assay: AK assay 384-well format, Prestwick library screening; type: cell-based, Enterococcus faecium; conditions: E. faecium; 50 μM, cutoff 3-fold increase in AK
E. faecium strain 824-05 = assay: Galleria mellonella model of E. faecium infection; type: in vivo; conditions: larval survival 48 h postinoculation
Staphylococcus aureus = assay: MIC testing; type: cell-based
[2] = test system: Acinetobacter baumannii 98-37-09; assay: MIC testing; type: cell-based
[3] = test system: S. aureus strain UAMS-1 static biofilms; assay: AK assay of established biofilms (with plating); type: cell-based, Staphylococcus aureus; conditions: 10×MIC; for decrease in biofilm-associated bacteria / biofilm cell viability (plating): S. aureus UAMS-1 48-h biofilm, vs untreated
[4] = test system: S. aureus SCV strain UAMS-1112; assay: Small-colony variant AK assay (with plating); type: cell-based, Staphylococcus aureus
Protocol: Thirty-six-hour cultures of S. aureus strain UAMS-1112 were used to inoculate (1:100 dilution) 100 ml of fresh MH medium and grown at 37° C. on a rotary shaker at 225 rpm to an optical density (600 nm) of 0.1 to 0.2, corresponding to ˜1×10^6 CFU ml^−1. Cells were pelleted by centrifugation and resuspended in 2 ml of fresh MH medium. Ninety-eight microliters of MH medium containing 5×10^6 bacteria and 2 μl of the indicated antibiotic were added to individual wells of a white-walled, 96-well microtiter plate. Well components were mixed by pipetting and incubated at 37° C. for 3 h. The plate was equilibrated to room temperature for 30 min. Next, 100 μl of ToxiLight AK reagent was added to each well, followed by incubation at room temperature for 30 min, and luminescence was measured using a SpectraMax M5 plate reader.
SCV are slow-growing populations of bacterial species that have been hypothesized to cause latent or recurrent infections and are tolerant of standard antibiotic treatment regimens. Based on the aberrant SCV growth characteristics, typical growth-based HTS assays would be difficult to employ. Accordingly, the ability of the AK assay to identify agents that kill S. aureus SCV strain UAMS-1112 was tested. […].

[5] = test system: Klebsiella pneumoniae cKP1; assay: MIC testing; type: cell-based
[6] = test system: Pseudomonas aeruginosa PA01; assay: MIC testing; type: cell-based
[7] = test system: Enterobacter cloacae PMD1001; assay: MIC testing; type: cell-based
Escherichia coli 8295 [8] = assay: MIC testing; type: cell-based
[9] = test system: Klebsiella pneumoniae cKP1; assay: AK assay 96-well format; type: cell-based
[10] = test system: Acinetobacter baumannii 98-37-09; assay: AK assay 96-well format; type: cell-based; conditions: for Fold increase in AK signal: Acinetobacter baumannii 98-37-09
[11] = test system: Pseudomonas aeruginosa PA01; assay: AK assay 96-well format; type: cell-based
[12] = test system: Enterobacter cloacae PMD1001; assay: AK assay 96-well format; type: cell-based
Escherichia coli 8295 [13] = assay: AK assay 96-well format; type: cell-based
[14] = test system: A. baumannii strain 98-37-09 static biofilms; assay: AK assay of established biofilms (with plating); type: cell-based, Acinetobacter baumannii; conditions: A. baumannii 98-37-09 biofilm; 10×MIC overnight; vs untreated
Protocol: Biofilms were grown as previously described (Beenken et al. Infect. Immun. 71: 4206-4211 (2003); Musken et al. Nat. Protoc. 5: […] (2010); Tomaras et al. Microbiology 149: 3473-3483 (2003)). Briefly, P. aeruginosa and A. baumannii were cultured overnight in Luria-Bertani medium and then used to seed 96-well, flat-bottom plates. Plates were incubated at 37° C. in a humidified incubator for 48 h to allow the formation of static biofilms. Nonadherent cells were removed by aspiration and washing with sterile phosphate-buffered saline (PBS). […] Following treatment, 100 μl of each biofilm supernatant was transferred to 96-well, white-walled plates, 100 μl of ToxiLight AK reagent was added to each well, mixtures were incubated for 30 min at room temperature, and luminescence was measured using a SpectraMax M5 plate reader. Biofilm-associated bacteria were enumerated by resuspending each biofilm in fresh PBS and plating. […] Established S. aureus biofilms were washed once with PBS and then treated with a 100 μl of ToxiLight lysis buffer for 3 h, after which the amount of AK released into supernatants was measured, as described above.
Following overnight antibiotic treatment, biofilm-associated bacteria were enumerated by plating, and the corresponding supernatants were analyzed by the AK assay.

[15] = test system: Enterococcus faecium 824-05; assay: AK assay 96-well format; type: cell-based
[16] = 82405, Enterococcus faecium 824-05, read-out: MIC
[17] = 983709, Acinetobacter baumannii 98-37-09, read-out: MIC
[18] = S. aureus UAMS-1112, 1× or 10×MIC for 3 h

| Compound | MIC [1, 16] [µg/mL] | MIC [2, 17] [µg/mL] | decrease in biofilm-associated bacteria / biofilm cell viability (plating) [3] [log] | decrease in SCV viability (plating) [4, 18] | increase in AK signal compared to mock-treated cells [4, 18] | MIC [6] [µg/mL] | MIC [7] [µg/mL] | MIC (Escherichia coli 8295 [8]) [µg/mL] | Fold increase in AK signal ([9]; treatment 0.5×MIC) [fold] | Fold increase in AK signal ([9]; treatment 1.0×MIC) [fold] | Fold increase in AK signal ([11]; treatment 0.5×MIC) [fold] | Fold increase in AK signal ([11]; treatment 1.0×MIC) [fold] | Fold increase in AK signal ([12]; treatment 0.5×MIC) [fold] | Fold increase in AK signal ([12]; treatment 1.0×MIC) [fold] | Fold increase in AK signal (Escherichia coli 8295 [13]; treatment 0.5×MIC) [fold] | Fold increase in AK signal (Escherichia coli 8295 [13]; treatment 1.0×MIC) [fold] | MIC (Staphylococcus aureus; Staphylococcus aureus) [µg/mL] | Fold increase in AK signal ([15]; treatment 0.5×MIC) [fold] | Fold increase in AK signal ([15]; treatment 1.0×MIC) [fold] | also measured |
| --- | --- | --- | --- | --- | --- | --- | --- | --- | --- | --- | --- | --- | --- | --- | --- | --- | --- | --- | --- | --- |
| CC/C(=C(\c1ccccc1)c1ccc(OCCN(C)C)cc1)c1ccccc1 [Tamoxifen, tamoxifen] | 8 (≈ 21.5 µM) |  |  |  |  |  |  |  |  |  |  |  |  |  |  |  |  |  |  | activity in AK Prestwick screen (E. faecium): identified; higher survival than vehicle-treated controls (E. faecium strain 824-05; 80 mg kg-1 at 2 h and 24 h): 4.2 fold; higher survival than vehicle-treated controls (E. faecium strain 824-05; 160 mg kg-1 at 2 h and 24 h): 7 fold |
| CC(C)(C)c1ccc(C(O)CCCN2CCC(C(O)(c3ccccc3)c3ccccc3)CC2)cc1 (stereo not shown) [Terfenadine] |  | 64 (≈ 136 µM) | 1.1 |  |  |  |  |  |  |  |  |  |  |  |  |  |  |  |  | MIC (Staphylococcus aureus; Staphylococcus aureus, S. aureus UAMS-1112 (small-colony variant), read-out: MIC): 2 µg/mL (≈ 4.24 µM); increase in AK release ([3]; 48-h S. aureus UAMS-1 biofilms): 2.7 fold; increase in AK signal compared to mock-treated cells ([4]; S. aureus small-colony-variant UAMS-1112, 10×MIC): 3.3 fold |
| O=C(O)c1cn(C2CC2)c2cc(N3CCNCC3)c(F)cc2c1=O [Ciprofloxacin, ciprofloxacin] |  |  | 0.7 | no effect | no change |  |  |  |  |  |  |  |  |  |  |  |  |  |  |  |
| colistin |  |  |  |  |  | 4 | 2 | 8 | 34 | 33 | 5 | 12 | 10 | 32 | 15 | 22 |  |  |  | MIC ([1]; Enterococcus faecium 824-05): >256 µg/mL; MIC (Staphylococcus aureus; Staphylococcus aureus RN4220): >256 µg/mL; MIC (Staphylococcus aureus; Staphylococcus aureus USA300-0114): >256 µg/mL; MIC ([5]; Klebsiella pneumoniae cKP1): 8 µg/mL; MIC ([2]; Acinetobacter baumannii 98-37-09): 4 µg/mL; AK release ([10]; A. baumannii 98-37-09, 0.25×, 0.5×, and 1×MIC): robustly detected; Fold increase in AK signal ([10]; treatment 0.5×MIC): 17 fold; Fold increase in AK signal ([10]; treatment 1.0×MIC): 49 fold; decrease in biofilm-associated bacteria (plating) [14]: 1.8 log |
| CN[C@H](CC(C)C)C(=O)N[C@H]1C(=O)N[C@@H](CC(N)=O)C(=O)N[C@H]2C(=O)N[C@H]3C(=O)N[C@H](C(=O)N[C@H](C(=O)O)c4cc(O)cc(O)c4-c4cc3ccc4O)[C@H](O)c3ccc(c(Cl)c3)Oc3cc2cc(c3O[C@@H]2O[C@H](CO)[C@@H](O)[C@H](O)[C@H]2O[C@H]2C[C@](C)(N)[C@H](O)[C@H](C)O2)Oc2ccc(cc2Cl)[C@H]1O [Vancomycin, vancomycin] |  |  |  | no effect | no change | > 256 | > 256 | 16 (≈ 11 µM) |  |  |  |  |  |  | 1 | 2 | 2 (≈ 1.38 µM) | 1 | 2 | MIC ([1]; Enterococcus faecium, 82405): 2 µg/mL (≈ 1.38 µM); MIC (Staphylococcus aureus; Staphylococcus aureus, USA300): 1 µg/mL (≈ 0.69 µM); MIC ([5]; Klebsiella pneumoniae, CKP1): > 256 µg/mL; MIC ([2]; Acinetobacter baumannii, 983709): 64 µg/mL (≈ 44.2 µM) |
| CN(C)c1ccc(O)c2c1C[C@H]1C[C@H]3[C@H](N(C)C)C(O)=C(C(N)=O)C(=O)[C@@]3(O)C(O)=C1C2=O [Minocycline, minocycline] | 1 (≈ 2.19 µM) | 1 (≈ 2.19 µM) |  |  |  |  |  |  | 1 | 1 | 1 | 6 | 4 | 9 | 4 | 38 | 8 (≈ 17.5 µM) | 3 | 4 | MIC (Staphylococcus aureus; Staphylococcus aureus USA300-0114, read-out: MIC): 1 µg/mL (≈ 2.19 µM); MIC ([5]; Klebsiella pneumoniae cKP1, read-out: MIC): 64 µg/mL (≈ 140 µM); MIC ([6]; read-out: MIC): 32 µg/mL (≈ 69.9 µM); MIC ([7]; read-out: MIC): 4 µg/mL (≈ 8.74 µM); MIC (Escherichia coli 8295 [8]; read-out: MIC): 16 µg/mL (≈ 35 µM) |
